We go through 26 compounds from PMC12155096 (International Journal of Molecular Sciences, 2025).

Some targets named below: human CYP2C9 (Homo sapiens, UniProt P11712); human CYP2C19 (Homo sapiens, UniProt P33261); CYP3A4 (Homo sapiens, UniProt P08684); human CYP2D6 (Homo sapiens, UniProt P10635).
The target in another data set is T1, human CYP1A2 (Homo sapiens, UniProt P05177).
T1 sequence (P05177 1-516): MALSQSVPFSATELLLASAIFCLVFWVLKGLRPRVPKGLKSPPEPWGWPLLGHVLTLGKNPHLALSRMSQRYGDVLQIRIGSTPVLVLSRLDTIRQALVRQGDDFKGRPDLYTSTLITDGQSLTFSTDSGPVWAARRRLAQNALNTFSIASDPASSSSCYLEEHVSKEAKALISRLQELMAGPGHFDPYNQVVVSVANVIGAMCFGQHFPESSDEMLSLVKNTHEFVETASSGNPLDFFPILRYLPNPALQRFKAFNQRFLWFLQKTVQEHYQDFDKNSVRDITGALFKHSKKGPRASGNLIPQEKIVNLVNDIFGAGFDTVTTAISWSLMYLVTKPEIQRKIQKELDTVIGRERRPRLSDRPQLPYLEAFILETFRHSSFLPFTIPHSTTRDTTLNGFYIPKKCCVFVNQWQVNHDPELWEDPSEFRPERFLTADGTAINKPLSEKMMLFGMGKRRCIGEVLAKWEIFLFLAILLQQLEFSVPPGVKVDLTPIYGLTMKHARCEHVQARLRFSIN

Sequence of human CYP2C19 (P33261 whole entry): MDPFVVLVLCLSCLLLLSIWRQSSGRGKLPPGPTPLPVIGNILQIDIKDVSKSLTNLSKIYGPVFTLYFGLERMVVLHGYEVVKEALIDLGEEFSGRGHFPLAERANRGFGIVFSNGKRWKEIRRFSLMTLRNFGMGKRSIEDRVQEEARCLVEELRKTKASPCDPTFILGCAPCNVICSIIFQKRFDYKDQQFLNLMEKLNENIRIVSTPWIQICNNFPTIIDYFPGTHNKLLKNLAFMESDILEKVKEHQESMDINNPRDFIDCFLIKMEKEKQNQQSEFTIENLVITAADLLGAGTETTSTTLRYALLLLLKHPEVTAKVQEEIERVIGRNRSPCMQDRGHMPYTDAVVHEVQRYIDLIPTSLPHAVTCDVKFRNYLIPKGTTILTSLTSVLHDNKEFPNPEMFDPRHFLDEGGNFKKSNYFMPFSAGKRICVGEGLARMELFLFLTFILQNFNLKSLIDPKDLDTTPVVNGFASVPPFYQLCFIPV
Sequence of human CYP2C9 (P11712 whole entry): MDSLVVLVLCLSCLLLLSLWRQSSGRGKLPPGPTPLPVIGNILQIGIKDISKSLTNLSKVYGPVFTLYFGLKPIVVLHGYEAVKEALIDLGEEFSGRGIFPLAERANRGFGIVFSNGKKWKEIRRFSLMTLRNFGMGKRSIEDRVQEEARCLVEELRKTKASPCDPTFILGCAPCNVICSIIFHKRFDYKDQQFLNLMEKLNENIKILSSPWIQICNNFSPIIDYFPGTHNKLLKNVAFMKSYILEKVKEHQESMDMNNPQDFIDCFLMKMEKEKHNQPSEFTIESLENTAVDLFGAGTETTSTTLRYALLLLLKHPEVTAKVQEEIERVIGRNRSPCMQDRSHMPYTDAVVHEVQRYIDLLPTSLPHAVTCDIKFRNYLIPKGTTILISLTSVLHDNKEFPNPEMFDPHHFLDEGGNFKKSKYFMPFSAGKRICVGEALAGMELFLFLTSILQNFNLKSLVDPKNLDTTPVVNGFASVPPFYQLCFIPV
Sequence of CYP3A4 (P08684 whole entry): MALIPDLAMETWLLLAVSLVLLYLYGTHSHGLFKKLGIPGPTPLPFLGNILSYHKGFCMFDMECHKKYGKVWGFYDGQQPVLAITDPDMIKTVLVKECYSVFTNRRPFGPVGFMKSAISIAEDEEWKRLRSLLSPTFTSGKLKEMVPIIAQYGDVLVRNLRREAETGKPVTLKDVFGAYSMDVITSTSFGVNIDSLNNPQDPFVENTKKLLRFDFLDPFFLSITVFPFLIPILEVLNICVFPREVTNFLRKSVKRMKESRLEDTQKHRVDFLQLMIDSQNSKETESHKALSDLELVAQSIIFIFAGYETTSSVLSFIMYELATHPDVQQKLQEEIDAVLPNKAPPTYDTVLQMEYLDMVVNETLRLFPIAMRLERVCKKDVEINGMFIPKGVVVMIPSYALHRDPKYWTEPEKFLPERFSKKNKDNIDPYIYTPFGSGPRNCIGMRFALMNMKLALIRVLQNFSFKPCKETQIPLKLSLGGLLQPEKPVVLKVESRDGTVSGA
Sequence of human CYP2D6 (P10635 whole entry): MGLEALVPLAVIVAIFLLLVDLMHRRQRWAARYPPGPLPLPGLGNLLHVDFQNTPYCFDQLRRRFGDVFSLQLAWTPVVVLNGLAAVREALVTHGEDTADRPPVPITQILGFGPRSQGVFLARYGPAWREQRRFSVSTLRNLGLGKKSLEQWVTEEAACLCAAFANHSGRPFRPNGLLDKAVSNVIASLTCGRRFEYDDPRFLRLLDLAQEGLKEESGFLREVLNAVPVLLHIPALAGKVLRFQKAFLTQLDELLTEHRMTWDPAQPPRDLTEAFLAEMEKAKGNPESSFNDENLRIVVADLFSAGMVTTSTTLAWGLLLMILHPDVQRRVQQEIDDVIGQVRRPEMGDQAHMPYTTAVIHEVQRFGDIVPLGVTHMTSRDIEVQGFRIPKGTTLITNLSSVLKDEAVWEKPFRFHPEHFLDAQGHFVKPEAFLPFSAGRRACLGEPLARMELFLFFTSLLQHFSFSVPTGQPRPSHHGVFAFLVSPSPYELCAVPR

As to `CCOC(=O)c1ccc(O)c(O)c1` [Ethyl protocatechuate], the figures for the AC50 on human CYP1A2 and at human CYP2C9 were 27.2 µM and 32.2 µM, respectively. Besides, the “CYP2C19 AC50 (half-maximal activity concentration)” value (“CYP2C19 AC50” for short) at human CYP2C19 is given as “Inactive”. Also, the “CYP3A4 AC50 (half-maximal activity concentration)” value (“CYP3A4 AC50” below) on CYP3A4 is “Inactive”. Further, on human CYP2D6, the “CYP2D6 AC50 (half-maximal activity concentration)” value (“CYP2D6 AC50” below) is listed as “Inactive”.
Take `C[C@]12CC[C@H]3[C@@H](CCC4=CC(=O)CC[C@@]43C)[C@@H]1CC[C@@H]2C(=O)O` [Etienic acid]: the “CYP1A2 AC50 (half-maximal activity concentration)” value (“CYP1A2 AC50” for short) at human CYP1A2 is listed as “Inactive”. Further, the figures for the AC50 on human CYP2C9 and at CYP3A4 were 21.2 µM and 20.8 µM, respectively. Moreover, at human CYP2C19, the “CYP2C19 AC50” value was “Inactive”. In addition, on human CYP2D6, the “CYP2D6 AC50” value is “Inactive”.
`CN1CCC(Nc2ncc3ncnc(Nc4ccc(F)c(Cl)c4)c3n2)CC1.Cl.Cl` [Falnidamol dihydrochloride]: the “CYP1A2 AC50” value on human CYP1A2 is given as “Inactive”. Also, on human CYP2C9, the “CYP2C9 AC50 (half-maximal activity concentration)” value (from here on “CYP2C9 AC50”) was “Inactive”. The “CYP2C19 AC50” value on human CYP2C19 is given as “Inactive”. Moreover, the AC50 – broadly, the concentration at which the activity in the assay is half-maximal – came out at 14.4 µM on CYP3A4 and 18.4 µM on human CYP2D6.
Consider `O=C(NCc1ncc(C(F)(F)F)cc1Cl)c1c(Cl)cccc1Cl` [Fluopicolide], for which the AC50 at human CYP1A2 stood at 33 µM; on human CYP2C9, 4.13 µM; at human CYP2C19, 18.6 µM; at CYP3A4, 12.6 µM; on human CYP2D6, 6.57 µM.
For the compound `C/C=C1/C(=O)C[C@H]2[C@@H]3CCC4=CC(=O)CC[C@]4(C)[C@H]3CC[C@]12C` [Guggulsterone E], the “CYP1A2 AC50” value on human CYP1A2 is given as “Inconclusive inhibitor”. In addition, the AC50 on human CYP2C9 is 19.6 µM; on human CYP2C19 it was 4.67 µM; at CYP3A4, 1.82 µM. Also, the “CYP2D6 AC50” value at human CYP2D6 is “Inactive”.
As for `C/C=C1\C(=O)C[C@H]2[C@@H]3CCC4=CC(=O)CC[C@]4(C)[C@H]3CC[C@]12C` [Guggulsterone Z], the “CYP1A2 AC50” value on human CYP1A2 was “Inactive”. For the same compound, the results for the AC50 at human CYP2C9, on human CYP2C19 and on CYP3A4 were 24.8 µM, 6.83 µM and 3.8 µM, respectively. The “CYP2D6 AC50” value on human CYP2D6 is given as “Inactive”.
`O=C(OCCCCCCOC(=O)c1ccccc1)c1ccccc1` [Hexane-1,6-diyl dibenzoate]: the AC50 at human CYP1A2 came to 3.43 µM; on human CYP2C9, 10.6 µM; at human CYP2C19, 83.2 µM; on CYP3A4 it was 24 µM. Moreover, the “CYP2D6 AC50” value on human CYP2D6 is listed as “Inactive”.
Take `Cl.Nc1c2c(nc3c1CCC3)CCCC2.O` [Ipidacrine hydrochloride hydrate]: the “CYP1A2 AC50” value on human CYP1A2 was “Inconclusive inhibitor”. For the same compound, on human CYP2C9, the “CYP2C9 AC50” value is reported as “Inactive”. The “CYP2C19 AC50” value at human CYP2C19 is “Inactive”. Moreover, the AC50 on CYP3A4 was found to be 14.9 µM; at human CYP2D6, 10.7 µM.
As for `CC(C)COC(=O)C=Cc1ccccc1` [Isobutyl 3-phenylacrylate], the AC50 at human CYP1A2 is 17 µM; at human CYP2C9, 44 µM; on human CYP2C19, 80 µM; on CYP3A4 it was 22.8 µM. Moreover, the “CYP2D6 AC50” value on human CYP2D6 is recorded as “Inactive”.
`CCOC(=O)C1=NOC(c2ccccc2)(c2ccccc2)C1` [Isoxadifen-ethyl]: at human CYP1A2, the “CYP1A2 AC50” value is “Inconclusive inhibitor”. Moreover, the AC50 at human CYP2C9 was 8.36 µM; at human CYP2C19, 21.6 µM; on CYP3A4, 34.3 µM. Besides, the “CYP2D6 AC50” value on human CYP2D6 was “Inconclusive activator”.
In the case of `COCC(=O)N(c1c(C)cccc1C)[C@H](C)C(=O)OC` [Metalaxyl-M], the AC50 on human CYP1A2 and on CYP3A4 was 47.7 µM throughout. Further, at human CYP2C9, the “CYP2C9 AC50” value is on record as “Inactive”. The “CYP2C19 AC50” value on human CYP2C19 is “Inconclusive inhibitor”. Also, at human CYP2D6, the “CYP2D6 AC50” value is listed as “Inactive”.
With `COC(=O)Cc1cccc2ccccc12` [Methyl 1-naphthaleneacetate], the AC50 on human CYP1A2 is 18.8 µM; on human CYP2C9, 41.9 µM; on human CYP2C19 it was 63.5 µM; at CYP3A4 it was 27.5 µM. In addition, the “CYP2D6 AC50” value on human CYP2D6 is reported as “Inactive”.
Consider `CCS(=O)(=O)c1ccc(OC)c(C(=O)OC)c1` [Methyl 5-(ethylsulfonyl)-o-anisate], for which, at human CYP1A2, the “CYP1A2 AC50” value is recorded as “Inactive”. This compound also displayed an AC50 on human CYP2C9 of 24.6 µM. The “CYP2C19 AC50” value at human CYP2C19 was “Inconclusive inhibitor”. Also, the “CYP3A4 AC50” value at CYP3A4 is on record as “Inactive”. The “CYP2D6 AC50” value at human CYP2D6 was “Inactive”.
Take `COC(=O)c1cc(S(N)(=O)=O)ccc1OC` [Methyl 5-sulfamoyl-o-anisate]: the “CYP1A2 AC50” value on human CYP1A2 is on record as “Inactive”. In addition, the AC50 on human CYP2C9 amounted to 30.9 µM. For the same compound, the “CYP2C19 AC50” value at human CYP2C19 is reported as “Inactive”. In addition, the “CYP3A4 AC50” value on CYP3A4 is “Inactive”. Besides, at human CYP2D6, the “CYP2D6 AC50” value was “Inactive”.
Consider `CCCCCCC(O)CCCCCCCCCCC(=O)OC` (stereo not shown) [Methyl 12-hydroxyoctadecanoate], for which, on human CYP1A2, the “CYP1A2 AC50” value was “Inconclusive inhibitor”. Besides, the AC50 on human CYP2C9 came out at 23.8 µM; on CYP3A4 it was 27.7 µM. Also, the “CYP2C19 AC50” value at human CYP2C19 was “Inactive”. In addition, on human CYP2D6, the “CYP2D6 AC50” value was “Inactive”.
Turning to `CCCCCCCCCCCCCOP(=O)(O)O` [Monotridecyl phosphate], the AC50 at human CYP1A2 was 65.1 µM; on human CYP2C9, 56.7 µM; at human CYP2C19 it was 45.5 µM; on CYP3A4, 89.4 µM. The “CYP2D6 AC50” value at human CYP2D6 is “Inactive”.
With `O=C1C=CC(=O)N1c1cccc(N2C(=O)C=CC2=O)c1` [N,N'-1,3-Phenylenedimaleimide], the AC50 on human CYP1A2 came to 12.7 µM; on human CYP2C9 it was 5.22 µM; on human CYP2C19, 7.04 µM; at CYP3A4 it was 9.83 µM; at human CYP2D6, 36.3 µM.
`CN(C)CCc1c[nH]c2ccccc12.O=C(O)/C=C/C(=O)O` [N,N-Dimethyltryptamine fumarate]: the “CYP1A2 AC50” value at human CYP1A2 is reported as “Inactive”. Further, the “CYP2C9 AC50” value on human CYP2C9 was “Inactive”. Further, the “CYP2C19 AC50” value on human CYP2C19 is recorded as “Inactive”. For the same compound, the AC50 on CYP3A4 is 89.9 µM; on human CYP2D6, 34.6 µM.
As for `CCC(CC)Nc1ccc(C)c(C)c1` [N-(1-Ethylpropyl)-3,4-xylidine], the AC50 was 11.6 µM at human CYP1A2, 33.6 µM at human CYP2C9, 10.7 µM at human CYP2C19 and 1.45 µM at CYP3A4. In addition, the “CYP2D6 AC50” value on human CYP2D6 is “Inconclusive inhibitor”.
In the case of `CCNS(=O)(=O)c1ccc(C)cc1` [N-Ethyl-4-methylbenzenesulfonamide], the AC50 on human CYP1A2 was determined as 41.1 µM; at human CYP2C9, 32 µM; on human CYP2C19, 25.9 µM. Also, the “CYP3A4 AC50” value at CYP3A4 is “Inactive”. For the same compound, the “CYP2D6 AC50” value on human CYP2D6 is reported as “Inconclusive inhibitor”.
Take `CC(C)N1C(=O)c2ccccc2C1=O` [N-Isopropylphthalimide]: the AC50 came out at 35.6 µM at human CYP1A2 and 57.7 µM at CYP3A4. Moreover, the “CYP2C9 AC50” value at human CYP2C9 is on record as “Inconclusive inhibitor”. In addition, at human CYP2C19, the “CYP2C19 AC50” value was “Inactive”. The “CYP2D6 AC50” value at human CYP2D6 was “Inactive”.
Regarding `O=C(O)C[C@H](NC(=O)OCc1ccccc1)C(=O)O` [N-[(Benzyloxy)carbonyl]-L-aspartic acid], the “CYP1A2 AC50” value at human CYP1A2 is recorded as “Inactive”. Further, the “CYP2C9 AC50” value at human CYP2C9 is recorded as “Inactive”. For the same compound, the “CYP2C19 AC50” value at human CYP2C19 is recorded as “Inactive”. Besides, on CYP3A4, the AC50 is 35.5 µM. Moreover, the “CYP2D6 AC50” value at human CYP2D6 is given as “Inactive”.
`C[C@]12CC[C@H]3[C@@H](CCC4=CC(=O)CC[C@@H]43)[C@@H]1CC[C@@H]2OC(=O)CCC1CCCCC1` [Nandrolone cyclohexylpropionate]: the values for the AC50 at human CYP1A2, at human CYP2C9 and at CYP3A4 were 26.8 µM, 17.4 µM and 4.56 µM, respectively. Besides, the “CYP2C19 AC50” value on human CYP2C19 is on record as “Inconclusive inhibitor”. Further, the “CYP2D6 AC50” value on human CYP2D6 is “Inactive”.
As to `CC(C)(COC(=O)c1ccccc1)COC(=O)c1ccccc1` [Neopentyl glycol dibenzoate], the AC50 at human CYP1A2 is 47.7 µM; on human CYP2C9 it was 6.58 µM; at human CYP2C19, 20.8 µM; at CYP3A4 it was 35.7 µM. In addition, the “CYP2D6 AC50” value at human CYP2D6 was “Inactive”.
With `Cc1cc(C)nc(O)n1.O=C(Nc1ccc([N+](=O)[O-])cc1)Nc1ccc([N+](=O)[O-])cc1` [Nicarbazin], the “CYP1A2 AC50” value on human CYP1A2 is on record as “Inactive”. The “CYP2C9 AC50” value on human CYP2C9 is recorded as “Inactive”. In addition, the “CYP2C19 AC50” value at human CYP2C19 is “Inconclusive inhibitor”. In addition, half-maximal activity at CYP3A4 (AC50) was put at 7.42 µM. On human CYP2D6, the “CYP2D6 AC50” value was “Inactive”.
Consider `O=C(O)C(F)(F)C(F)(F)C(F)(F)C(F)(F)C(F)(F)F` [PFHxA], for which the “CYP1A2 AC50” value at human CYP1A2 is given as “Inactive”. The AC50 on human CYP2C9 came out at 17.5 µM; at CYP3A4, 58.1 µM. On human CYP2C19, the “CYP2C19 AC50” value was “Inactive”. For the same compound, at human CYP2D6, the “CYP2D6 AC50” value is reported as “Inconclusive inhibitor”.
